The source of these data is US20070244103A1, “Novel Compounds Having an Anti-Bacterial Activity” (Morphochem Aktiengesellschaft Fur Kombinatorische Chemie, priority 2004, published 2007).

The structures appear in SMILES notation.

A short description of the assay: MIC of the examples against various organisms. The class given is cell-based. Conditions: against at least two of the above organisms (12-strain panel). As to the method:
The MIC (μg/ml) of the examples against various organisms was determined: A. baumannii ATCC19606, E. cloacae ATCC23355, E. coli ATCC25922, K. pneumoniae ATCC27736, P. mirabilis ATCC29906, P. aeruginosa ATCC27853, S. maltophilia ATCC13637, S. aureus ATCC43300, S. epidermidis ATCC14990, S. haemolyticus ATCC29970, E. faecalis ATCC29212 and E. faecium ATC19434.
As a reminder, the MIC is the smallest concentration in the dilution series that meets the test's criterion for growth inhibition. For `COc1cnc2cccc(NC(=O)C3CCCC(CNCc4cc5c(cn4)OCCO5)C3)c2n1` (centres unmarked) [Example 107, 3-{[(2,3-Dihydro-[1,4]dioxino[2,3-c]pyridin-7-ylmethyl)-amino]-methyl}-cyclohexanecarboxylic acid (3-methoxy-quinoxalin-5-yl)-amide], the MIC was at most 2 µg/mL.

As to `COc1ccc2ncc(Cl)c(C(O)CN3CCCC(CNCc4ccc5c(c4)OCCO5)C3)c2c1` (single isomer, unassigned) [Example 66, 1-(3-Chloro-6-methoxy-quinolin-4-yl)-2-(3-{[(2,3-dihydro-benzo[1,4]dioxin-6-ylmethyl)-amino]-methyl}-piperidin-1-yl)-ethanol], the minimum inhibitory concentration (MIC) was at most 2 µg/mL.

Turning to `COc1ccc2nccc(C(O)CN3CCOC(CNCc4ccc5c(c4)NC(=O)CS5)C3)c2n1` (centres unmarked) [Example 32, 6-[({4-[2-Hydroxy-2-(6-methoxy-[1,5]naphthyridin-4-yl)-ethyl]-morpholin-2-ylmethyl}amino)-methyl]-4H-benzo[1,4]thiazin-3-one], the MIC is at most 2 µg/mL.

`COc1cnc2cccc(C(O)CN3C4CCC3CC(NCc3ccc5c(n3)NC(=O)CS5)C4)c2c1` (single isomer, unassigned) [Example 37, 6-({8-[2-Hydroxy-2-(3-methoxy-quinolin-5-yl)-ethyl]-8-aza-bicyclo[3.2.1]oct-3-ylamino}-methyl)-4H-pyrido[3,2-b][1,4]thiazin-3-one]: the MIC is at most 2 µg/mL.

Regarding `COc1ccc2ncc(Cl)c(C(O)CN3CCOC(CNCc4ccc5nsnc5c4)C3)c2c1` (single isomer, unassigned) [Example 74, 2-(2-{[(Benzo[1,2,5]thiadiazol-5-ylmethyl)-amino]-methyl}-morpholin-4-yl)-1-(3-chloro-6-methoxy-quinolin-4-yl)-ethanol], the MIC is at most 2 µg/mL.

`COc1ccc2ncc(Cl)c(C(O)CN3CCOC(CNCc4cc5c(cc4F)SCC(=O)N5)C3)c2c1` (single isomer, unassigned) [Example 75, 6-[({4-[2-(3-Chloro-6-methoxy-quinolin-4-yl)-2-hydroxy-ethyl]-morpholin-2-ylmethyl}-amino)-methyl]-7-fluoro-4H-benzo[1,4]thiazin-3-one]: the MIC is at most 2 µg/mL.

As for `COc1cnc2cccc(C(O)CN3CCCC(CNCc4ccc5c(c4)OCO5)C3)c2c1` (single isomer, unassigned) [Example 44, 2-(3-{[(Benzo[1,3]dioxol-5-ylmethyl)-amino]-methyl}-piperidin-1-yl)-1-(3-methoxy-quinolin-5-yl)-ethanol], the MIC is at most 2 µg/mL.

For `COc1ccc2nccc(NC(=O)C3CCCC(CNC/C=C/c4ccccc4)C3)c2n1` (centres unmarked) [Example 22, 3-[((E)-3-Phenyl-allylamino)-methyl]-cyclohexanecarboxylic acid (6-methoxy-[1,5]-naphthyridin-4-yl)-amide], the MIC is at most 2 µg/mL.

With `COc1ccc2nccc(NC(=O)C3CCCC(CNC/C=C/c4ccccc4)C3)c2c1` (centres unmarked) [Example 53, 3-[((E)-3-Phenyl-allylamino)-methyl]-cyclohexanecarboxylic acid (6-methoxy-quinolin-4-yl)-amide], the MIC was at most 2 µg/mL.

For `COc1ccc2ncc(Cl)c(C(O)CN3CCOC(CNCc4ccc5c(c4)OCO5)C3)c2c1` (single isomer, unassigned) [Example 72, 2-(2-{[(Benzo[1,3]dioxol-5-ylmethyl)-amino]-methyl}-morpholin-4-yl)-1-(3-chloro-6-methoxy-quinolin-4-yl)-ethanol], the MIC is at most 2 µg/mL.

In the case of `COc1ccc2ncc(Cl)c(C(O)CN3CCOC(CNCc4ccc5c(c4)NC(=O)CS5)C3)c2c1` (single isomer, unassigned) [Example 76, 6-[({4-[2-(3-Chloro-6-methoxy-quinolin-4-yl)-2-hydroxy-ethyl]-morpholin-2-ylmethyl}-amino)-methyl]-4H-benzo[1,4]thiazin-3-one], the minimal inhibitory concentration (MIC) is at most 2 µg/mL.

As to `COc1ccc2ncc(Cl)c(C(O)CN3CCOC(CNCc4ccc5c(c4)OCCO5)C3)c2c1` (single isomer, unassigned) [Example 73, 1-(3-Chloro-6-methoxy-quinolin-4-yl)-2-(2-{[(2,3-dihydro-benzo[1,4]dioxin-6-ylmethyl)-amino]-methyl}-morpholin-4-yl)-ethanol], the MIC is at most 2 µg/mL.

Consider `COc1cnc2cccc(C(O)CN3CCCC(CNCc4ccc5c(c4)NC(=O)CO5)C3)c2n1` (centres unmarked) [Example 87, 6-[({1-[2-Hydroxy-2-(3-methoxy-quinoxalin-5-yl)-ethyl]-piperidin-3-ylmethyl}-amino)-methyl]-4H-benzo[1,4]oxazin-3-one], for which the minimal inhibitory concentration (MIC) is at most 2 µg/mL.

For the molecule `COc1ccc2ncc(Cl)c(C(O)CN3CCCC(CNC/C=C/c4ccccc4)C3)c2c1` (single isomer, unassigned) [Example 69, 1-(3-Chloro-6-methoxy-quinolin-4-yl)-2-{3-[((E)-3-phenyl-allylamino)-methyl]-piperidin-1-yl}-ethanol], the minimal inhibitory concentration (MIC) is at most 2 µg/mL.

Take `COc1cnc2cccc(C(O)CN3C4CCC3CC(NCc3ccc5c(c3)OCO5)C4)c2n1` (centres unmarked) [Example 81, 2-{3-[(Benzo[1,3]dioxol-5-ylmethyl)-amino]-8-aza-bicyclo[3.2.1]oct-8-yl}-1-(3-methoxy-quinoxalin-5-yl)-ethanol]: the minimal inhibitory concentration (MIC) was at most 2 µg/mL.

For the molecule `COc1cnc2cccc(C(O)CN3CCCC(CNCc4cc5c(cc4F)SCC(=O)N5)C3)c2n1` (centres unmarked) [Example 89, 7-Fluoro-6-[({1-[2-hydroxy-2-(3-methoxy-quinoxalin-5-yl)-ethyl]-piperidin-3-ylmethyl}-amino)-methyl]-4H-benzo[1,4]thiazin-3-one], the MIC is at most 2 µg/mL.

Turning to `COc1ccc2nccc(C(O)CN3C4CCC3CC(NCc3ccc5c(c3)NC(=O)CO5)C4)c2n1` (single isomer, unassigned) [Example 8, 6-({8-[2-Hydroxy-2-(6-methoxy-[1,5]-naphthyridin-4-yl)-ethyl]-8-aza-bicyclo[3.2.1]oct-3-ylamino}-methyl)-4H-benzo[1,4]oxazin-3-one], the minimum inhibitory concentration (MIC) was at most 2 µg/mL.

With `COc1cnc2ccc(Cl)c(C(O)CN3CCCC(CNCc4ccc5c(c4)OCO5)C3)c2n1` (centres unmarked) [Example 94, 2-(3-{[(Benzo[1,3]dioxol-5-ylmethyl)-amino]-methyl}-piperidin-1-yl)-1-(6-chloro-3-methoxy-quinoxalin-5-yl)-ethanol], the MIC is at most 2 µg/mL.

Consider `COc1cnc2cccc(C(O)CN3C4CCC3CC(NCc3ccc5c(n3)NC(=O)CS5)C4)c2n1` (centres unmarked) [Example 79, 6-({8-[2-Hydroxy-2-(3-methoxy-quinoxalin-5-yl)-ethyl]-8-aza-bicyclo[3.2.1]oct-3-ylamino}-methyl)-4H-pyrido[3,2-b][1,4]thiazin-3-one], for which the MIC was at most 2 µg/mL.

As to `COc1cnc2ccc(Cl)c(C(O)CN3CCCC(CNCc4cc5c(cn4)OCCO5)C3)c2n1` (centres unmarked) [Example 97, 1-(6-Chloro-3-methoxy-quinoxalin-5-yl)-2-(3-{[(2,3-dihydro-[1,4]dioxino[2,3-c]-pyridin-7-ylmethyl)-amino]-methyl}-piperidin-1-yl)-ethanol], the MIC was at most 2 µg/mL.

On to `COc1ccc2nccc(NC(=O)C3CCCC(CNCc4ccc5c(c4)NC(=O)CO5)C3)c2n1` (centres unmarked) [Example 15, 3-{[(3-Oxo-3,4-dihydro-2H-benzo[1,4]oxazin-6-ylmethyl)-amino]-methyl}-cyclohexanecarboxylic acid (6-methoxy-[1,5]-naphthyridin-4-yl)-amide], for which the minimum inhibitory concentration (MIC) is at most 2 µg/mL.

On to `COc1cnc2cccc(NC(=O)C3CCCC(CNCc4ccc5c(n4)NC(=O)CS5)C3)c2n1` (centres unmarked) [Example 105, 3-{[(3-Oxo-3,4-dihydro-2H-pyrido[3,2-b][1,4]thiazin-6-ylmethyl)-amino]-methyl}-cyclohexanecarboxylic acid (3-methoxy-quinoxalin-5-yl)-amide], for which the minimal inhibitory concentration (MIC) is at most 2 µg/mL.

With `COc1ccc2cccc(NC(=O)C3CCCC(CNCc4ccc5c(n4)NC(=O)CS5)C3)c2n1` (centres unmarked) [Example 108, 3-{[(3-Oxo-3,4-dihydro-2H-pyrido[3,2-b][1,4]thiazin-6-ylmethyl)-amino]-methyl}-cyclohexanecarboxylic acid (2-methoxy-quinolin-8-yl)-amide], the MIC was at most 2 µg/mL.

On to `COc1ccc2nccc(C(O)CN3CCOC(CNCc4ccc5c(c4)OCCO5)C3)c2n1` (centres unmarked) [Example 31, 2-(2-{[(2,3-Dihydro-benzo[1,4]dioxin-6-ylmethyl)-amino]-methyl}-morpholin-4-yl)-1-(6-methoxy-[1,5]naphthyridin-4-yl)-ethanol], for which the MIC is at most 2 µg/mL.

Consider `COc1cnc2cccc(C(O)CN3CCCC(CNCc4ccc5c(c4)NC(=O)CO5)C3)c2c1` (single isomer, unassigned) [Example 45, 6-[({1-[2-Hydroxy-2-(3-methoxy-quinolin-5-yl)-ethyl]-piperidin-3-ylmethyl}-amino)-methyl]-4H-benzo[1,4]oxazin-3-one], for which the MIC was at most 2 µg/mL.

On to `COc1cnc2cccc(C(O)CN3CCCC(CNCc4ccc5c(n4)NC(=O)CS5)C3)c2n1` (centres unmarked) [Example 90, 6-[({1-[2-Hydroxy-2-(3-methoxy-quinoxalin-5-yl)-ethyl]-piperidin-3-ylmethyl}-amino)-methyl]-4H-pyrido[3,2-b][1,4]thiazin-3-one], for which the minimum inhibitory concentration (MIC) is at most 2 µg/mL.

As to `COc1cnc2cccc(C(O)CN3C4CCC3CC(NC/C=C/c3ccccc3)C4)c2c1` (centres unmarked) [Example 38, 1-(3-Methoxy-quinolin-5-yl)-2-[3-((E)-3-phenylallylamino)-8-aza-bicyclo[3.2.1]oct-8-yl]-ethanol], the MIC is at most 2 µg/mL.

For `COc1ccc2ncc(Cl)c(C(O)CN3C4CCC3CC(NCc3ccc5c(c3)NC(=O)CS5)C4)c2c1` (single isomer, unassigned) [Example 57, 6-({8-[2-(3-Chloro-6-methoxy-quinolin-4-yl)-2-hydroxy-ethyl]-8-aza-bicyclo[3.2.1]oct-3-ylamino}-methyl)-4H-benzo[1,4]thiazin-3-one], the minimal inhibitory concentration (MIC) was at most 2 µg/mL.

`COc1cnc2ccc(Cl)c(C(O)CN3CCCC(CNCc4ccc5c(c4)NC(=O)CO5)C3)c2n1` (centres unmarked) [Example 93, 6-[({1-[2-(6-Chloro-3-methoxy-quinoxalin-5-yl)-2-hydroxy-ethyl]-piperidin-3-ylmethyl}-amino)-methyl]-4H-benzo[1,4]oxazin-3-one]: the minimal inhibitory concentration (MIC) is at most 2 µg/mL.
